This is an account of results in article PMC11343938, “Micro-scale screening of genetically modified Fusarium fujikuroi strain extends the apicidin family” (Natural Products and Bioprospecting, 2024).

SMILES strings stand for the structures. Like-named read-outs stand apart in the source and are kept apart here. Square brackets hold non-standard residues; d marks the D form. Peptide text beside a SMILES is read from it. Trp(1-OMe) = COn1cc(C[C@H](N)C(=O)O)c2ccccc21; Asu = N[C@@H](CCCCCC(=O)O)C(=O)O; dPip = O=C(O)[C@H]1CCCCN1

The subject of one series is P. falciparum NF54. Kind of series: In vitro antiparasitic activity against P. falciparum. Format: cell-based. The note with it: Plasmodium falciparum, P. falciparum NF54, intraerythrocytic forms, read-out: IC50 inhibition of P. falciparum growth. The protocol: (§1) Furthermore, the whole set of isolated compounds was tested in vitro against T. brucei rhodesiense (bloodstream trypomastigotes) and P. falciparum (intraerythrocytic forms). All assays were performed using validated protocols at the Swiss TPH [34].

The next series concerns the target T1, HDAC1 (Homo sapiens, UniProt Q13547).
T1 construct: purchased BPS Bioscience 50051
Kind of series: In vitro HDAC inhibition assay (ZMAL substrate), HDAC1. Format: biochemical. The protocol:
(§2) In vitro inhibitory activity against HDAC1-3 and 6 was determined using our previously published assay protocol. […] Next, the total assay volume (50 µL, max. 1% DMSO) was incubated at 37 °C for 90 min. Subsequently, 50 µL trypsin solution (0.4 mg/mL trypsin in buffer: 50 mM Tris- HCl, pH 8.0, 100 mM NaCl) was added, followed by additional 30 min of incubation at 37 °C. Fluorescence (excitation: 355 nm, emission: 460 nm) was measured using a FLUOstar OPTIMA microplate reader (BMG LABTECH). The IC50 values were determined by generating normalized dose–response curves using the build-in "log(inhibitor) vs. response (three parameters)" equation provided by GraphPad Prism (GraphPad Prism 9.0, San Diego, USA). Compounds were tested in duplicates, reported mean IC50 values, including standard deviation, are calculated from at least two independent experiments.

The target in a further series is T2, HDAC2 (Homo sapiens, UniProt Q92769).
T2 construct: purchased BPS Bioscience 50052
Kind of series: biochemical. The note with it: mean ± SD of at least two independent experiments. The protocol:
as §2, with “USA).” for “USA). Compounds were tested in duplicates, reported mean IC50 values, including standard deviation, are calculated from at least two independent experiments.”

Another series deals with T3, HDAC3/NcoR2 (Homo sapiens, UniProt O15379).
T3 construct: purchased BPS Bioscience 50003
Description: In vitro HDAC inhibition assay (ZMAL substrate), HDAC3. The note with it: mean ± SD of at least two independent experiments. Type of series: biochemical. The protocol: as §2

Another series deals with T4, HDAC6 (Homo sapiens, UniProt Q9UBN7).
T4 construct: purchased BPS Bioscience 50006
T4 sequence (Q9UBN7 1-1215): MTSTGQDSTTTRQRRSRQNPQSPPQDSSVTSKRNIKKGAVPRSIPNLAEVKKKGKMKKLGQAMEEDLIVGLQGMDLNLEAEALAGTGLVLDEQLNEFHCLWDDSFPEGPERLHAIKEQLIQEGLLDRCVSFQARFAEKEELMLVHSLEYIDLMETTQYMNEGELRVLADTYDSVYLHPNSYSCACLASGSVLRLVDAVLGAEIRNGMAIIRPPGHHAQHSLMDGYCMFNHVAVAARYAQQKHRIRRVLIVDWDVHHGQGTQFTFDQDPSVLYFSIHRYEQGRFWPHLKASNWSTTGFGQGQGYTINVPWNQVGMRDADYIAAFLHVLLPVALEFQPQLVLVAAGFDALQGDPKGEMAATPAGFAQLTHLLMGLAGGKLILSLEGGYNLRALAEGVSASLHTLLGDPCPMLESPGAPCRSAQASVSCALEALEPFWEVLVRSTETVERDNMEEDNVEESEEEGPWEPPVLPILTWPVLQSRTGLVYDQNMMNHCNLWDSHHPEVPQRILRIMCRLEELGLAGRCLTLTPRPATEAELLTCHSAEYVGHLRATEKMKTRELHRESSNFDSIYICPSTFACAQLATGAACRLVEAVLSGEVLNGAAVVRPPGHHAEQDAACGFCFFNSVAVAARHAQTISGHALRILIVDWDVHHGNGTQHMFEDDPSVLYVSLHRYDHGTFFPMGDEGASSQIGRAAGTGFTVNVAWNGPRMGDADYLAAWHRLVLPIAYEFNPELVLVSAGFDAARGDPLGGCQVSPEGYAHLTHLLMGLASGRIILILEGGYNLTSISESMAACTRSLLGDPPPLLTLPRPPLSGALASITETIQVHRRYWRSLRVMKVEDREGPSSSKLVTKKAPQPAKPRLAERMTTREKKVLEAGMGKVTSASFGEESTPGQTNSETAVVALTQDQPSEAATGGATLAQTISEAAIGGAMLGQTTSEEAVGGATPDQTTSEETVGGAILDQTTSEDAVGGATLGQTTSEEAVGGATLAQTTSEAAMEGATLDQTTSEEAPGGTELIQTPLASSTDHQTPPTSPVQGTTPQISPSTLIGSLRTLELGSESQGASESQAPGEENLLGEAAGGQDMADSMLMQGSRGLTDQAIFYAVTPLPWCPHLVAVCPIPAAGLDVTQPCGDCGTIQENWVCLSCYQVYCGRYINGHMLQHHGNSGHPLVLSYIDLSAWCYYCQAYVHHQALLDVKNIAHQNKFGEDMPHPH
Kind of series: In vitro HDAC inhibition assay (ZMAL substrate), HDAC6. Type of series: biochemical. The protocol:
as §2

The test system of another series is HepG2. The note with it: human liver carcinoma cell line HepG2; cited from earlier work.
For the next series, the system named is Plasmodium falciparum. The note with it: cited from earlier work.
The nature of series [1]: in vitro. The note with it: rat.
The test system of another series is HepG2 (HB-8065). The note with it: resazurin assay, 24 h incubation, 0.01-100 µM tested. Background: The colour change of resazurin is a common sign of viable cells or microbes.
The subject of the next series is A549 (CCL-185). The note with it: resazurin assay, 24 h incubation, 0.01-100 µM tested.
Series [2] concerns Trypanosoma brucei rhodesiense STIB 900. Kind of series: In vitro antiparasitic activity against T. brucei rhodesiense. Type of series: cell-based. The note with it: bloodstream trypomastigotes. The protocol:
as §1

A short description of series [3]: in vitro. The note with it: human.
Where [4] appears, read: mean ± SD of at least two independent experiments, [b] < 30% inhibition at the stated concentration, read-out: IC50 HDAC1.
[5] abbreviates: mean ± SD of at least two independent experiments, [b] < 30% inhibition at the stated concentration, read-out: IC50 HDAC6.

The term IC50 denotes the point on the concentration scale where inhibition reaches its midpoint.

T1 sequence (Q13547 whole entry): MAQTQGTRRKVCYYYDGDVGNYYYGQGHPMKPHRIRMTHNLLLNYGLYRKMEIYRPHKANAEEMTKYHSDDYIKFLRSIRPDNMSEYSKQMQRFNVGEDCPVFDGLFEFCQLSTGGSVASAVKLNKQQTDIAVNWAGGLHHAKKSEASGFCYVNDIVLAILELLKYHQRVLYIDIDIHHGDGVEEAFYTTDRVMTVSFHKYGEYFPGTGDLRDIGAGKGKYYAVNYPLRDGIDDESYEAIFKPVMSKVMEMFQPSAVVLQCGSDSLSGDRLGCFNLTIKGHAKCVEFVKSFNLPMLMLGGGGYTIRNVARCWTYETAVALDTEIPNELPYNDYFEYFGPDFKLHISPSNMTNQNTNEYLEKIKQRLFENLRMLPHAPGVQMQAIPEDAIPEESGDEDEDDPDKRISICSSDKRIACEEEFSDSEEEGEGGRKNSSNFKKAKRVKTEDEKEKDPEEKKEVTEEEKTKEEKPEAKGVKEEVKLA
T3 sequence (O15379 whole entry): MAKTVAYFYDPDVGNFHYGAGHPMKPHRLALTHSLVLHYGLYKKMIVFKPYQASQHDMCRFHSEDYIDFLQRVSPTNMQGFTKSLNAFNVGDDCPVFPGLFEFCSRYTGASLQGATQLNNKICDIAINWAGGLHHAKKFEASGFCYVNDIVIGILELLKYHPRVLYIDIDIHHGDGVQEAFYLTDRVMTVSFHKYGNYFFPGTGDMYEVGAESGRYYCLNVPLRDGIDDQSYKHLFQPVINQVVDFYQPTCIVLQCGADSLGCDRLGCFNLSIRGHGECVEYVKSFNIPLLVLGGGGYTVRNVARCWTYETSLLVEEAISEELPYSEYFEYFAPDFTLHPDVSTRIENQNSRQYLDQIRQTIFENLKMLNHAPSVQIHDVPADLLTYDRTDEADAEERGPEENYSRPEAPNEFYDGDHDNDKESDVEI
T3 sequence (Q9Y618 395-489 partner limits assumed): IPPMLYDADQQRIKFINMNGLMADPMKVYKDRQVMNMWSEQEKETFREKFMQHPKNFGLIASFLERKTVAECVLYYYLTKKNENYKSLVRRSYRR
T2 sequence (Q92769 whole entry): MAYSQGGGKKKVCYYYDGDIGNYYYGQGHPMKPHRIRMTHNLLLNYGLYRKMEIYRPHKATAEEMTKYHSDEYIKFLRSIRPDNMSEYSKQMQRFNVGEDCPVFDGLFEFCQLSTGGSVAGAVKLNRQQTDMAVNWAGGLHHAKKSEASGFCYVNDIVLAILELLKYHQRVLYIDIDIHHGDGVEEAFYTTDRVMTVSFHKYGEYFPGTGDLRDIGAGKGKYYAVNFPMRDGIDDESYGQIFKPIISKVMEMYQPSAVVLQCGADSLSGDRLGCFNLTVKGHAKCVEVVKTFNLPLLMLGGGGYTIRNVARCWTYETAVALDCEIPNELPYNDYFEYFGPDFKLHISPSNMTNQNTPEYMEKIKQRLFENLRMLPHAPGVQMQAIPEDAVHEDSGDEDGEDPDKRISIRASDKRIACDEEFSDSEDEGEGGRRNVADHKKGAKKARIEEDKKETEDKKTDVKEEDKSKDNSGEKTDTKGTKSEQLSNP

For the molecule `COn1cc(C[C@@H]2NC(=O)[C@H](CCCCCC(=O)O)NC(=O)[C@H]3CCCCN3C(=O)[C@H](Cc3ccccc3)NC2=O)c2ccccc21` [Apicidin F (1), 6-[(3S,6S,9S,12R)-3-benzyl-6-[(1-methoxyindol-3-yl)methyl]-2,5,8,11-tetraoxo-1,4,7,10-tetrazabicyclo[10.4.0]hexadecane-9-yl]hexanoic acid] (cyclo([Asu][Trp(1-OMe)]F[dPip])), the IC50 in the series with P. falciparum NF54 was 510 nM; on HDAC1 (setting [4]) it was 102 ± 4 nM; on HDAC2, 164 ± 17 nM; against HDAC3/NcoR2, 202 ± 26 nM; at HDAC6 (setting [5]) it was 6.38 ± 1.57 µM; in the series with HepG2, 110 µM. In addition, the values for the IC50 in the series on Plasmodium falciparum (read-out: IC50 antiparasitic activity against Plasmodium falciparum) and in “in vitro [1]” were 670 nM and 63.7 µM, respectively.

Consider `COn1cc(C[C@@H]2NC(=O)[C@H](CCCCCC(=O)O)NC(=O)[C@H]3CCCN3C(=O)[C@H](Cc3ccccc3)NC2=O)c2ccccc21` [Apicidin J (2), 6-[(3S,6S,9S,12R)-3-benzyl-6-[(1-methoxyindol-3-yl)methyl]-2,5,8,11-tetraoxo-1,4,7,10-tetrazabicyclo[10.3.0]pentadecane-9-yl]hexanoate] (cyclo([Asu][Trp(1-OMe)]F[dP])), for which the IC50 came to 1100 nM in the series on P. falciparum NF54; 342 ± 18 nM at HDAC1 (setting [4]); 633 ± 28 nM on HDAC2; 754 ± 112 nM against HDAC3/NcoR2; 9.87 ± 1.4 µM on HDAC6 (setting [5]); 46.5 µM in “in vitro [1]”. In addition, in the series with HepG2 (HB-8065), the “IC50 cytotoxicity HepG2” value is “no IC50 could be calculated”. Further, the “IC50 cytotoxicity A549” value with A549 (CCL-185) is “no IC50 could be calculated”.

For `COn1cc(C[C@@H]2NC(=O)[C@H](CCCCCCO)NC(=O)[C@H]3CCCCN3C(=O)[C@H](Cc3ccccc3)NC2=O)c2ccccc21` [Apicidin K (3), (3S,6S,9S,12R)-3-benzyl-9-(6-hydroxyhexyl)-6-[(1-methoxyindol-3-yl)methyl]-1,4,7,10-tetrazabicyclo[10.4.0]hexadecane-2,5,8,11-tetrone], the IC50 was 1100 nM in the series with P. falciparum NF54, > 3330 nM on HDAC1 (setting [4]), > 10 µM at HDAC6 (setting [5]) and 7.2 µM in the series “in vitro [1]”.

In the case of `COn1cc(C[C@@H]2NC(=O)[C@H](CCCCCCO)NC(=O)[C@H]3CCCN3C(=O)[C@H](Cc3ccccc3)NC2=O)c2ccccc21` [Apicidin L (4), (3S,6S,9S,14aR)-9-benzyl-3-(6-hydroxyhexyl)-6-[(1-methoxy-1H-indol-3-yl)methyl]decahydropyrrolo[1,2-a][1,4,7,10]tetraazacyclododecine-1,4,7,10-tetraone], the “Activity against Trypanosoma brucei rhodesiense STIB 900” value in [2] is listed as “no effect”. The IC50 in the series on P. falciparum NF54 was 2100 nM; against HDAC1, > 10000 nM; against HDAC6 it was > 10 µM; in “in vitro [1]” it was 20 µM. Also, the “IC50 cytotoxicity HepG2” value in the series on HepG2 (HB-8065) was “no IC50 could be calculated”. For the same molecule, in the series with A549 (CCL-185), the “IC50 cytotoxicity A549” value is recorded as “no IC50 could be calculated”.

Take `CCC(=O)CCCCC[C@@H]1NC(=O)[C@H]2CCCCN2C(=O)[C@H]([C@@H](C)CC)NC(=O)[C@H](Cc2cn(OC)c3ccccc23)NC1=O` [apicidin (5), apicidin]: the IC50 in the series on HepG2 was 1.3 µM; in the series with Plasmodium falciparum (read-out: IC50 in the P. falciparum assay), 200 nM; in the series “in vitro [3]”, 2700 nM.
